Data reported in patent publication US20140323418A1, “SELECTIVE KINASE INHIBITORS” (PORTOLA PHARMACEUTICALS, INC., priority 2011, published 2014).
pIC50: −log10 of the molar value.

These compounds were tested against T1, full length active recombinant SYK enzyme (Homo sapiens, UniProt P43405) (assay: Inhibition of Syk tyrosine phosphorylation activity (LANCE TR-FRET kinase assay)). Settings: 1 nM SYK, 550 nM substrate, 100 μM ATP, 1 hour room temperature.
T1 construct: full length active recombinant SYK enzyme (Millipore, Calif.); purchased Millipore
Assay type: biochemical

SMILES | pIC50
CCn1ccc2c(Nc3nc(N[C@@H](CN)C4CC4)ncc3C(N)=O)cccc21 [Example 88, (R)-2-(2-amino-1-cyclopropylethylamino)-4-(1-ethyl-1H-indol-4-ylamino)pyrimidine-5-carboxamide] | 8.00 to 9.00
CC(C)[C@@H](Nc1ncc(C(N)=O)c(Nc2ccc3c(ccc[n+]3[O-])c2)n1)C(N)=O [Example 70, (R)-2-(1-amino-3-methyl-1-oxobutan-2-ylamino)-4-(quinolin-6-ylamino)pyrimidine-5-carboxamide N-oxide] | 6.00 to 7.00
NC(=O)c1cnc(N[C@@H]2CCOC[C@@H]2N)nc1Nc1ccc2ncccc2c1 [Example 180, 2-((3R,4R)-3-aminotetrahydro-2H-pyran-4-ylamino)-4-(quinolin-6-ylamino)pyrimidine-5-carboxamide] | 8.00 to 9.00
Cn1ccc2c(Nc3nc(NC[C@@H](N)CC(F)F)ncc3C(N)=O)ccnc21 [Example 94, (S)-2-(2-amino-4,4-difluorobutylamino)-4-(1-methyl-1H-pyrrolo[2,3-b]pyridin-4-ylamino)pyrimidine-5-carboxamide] | 8.00 to 9.00
Cn1ccc2c(Nc3nc(N[C@@H]4CCNC4)ncc3C(N)=O)cccc21 [Example 212, (R)-4-((1-methyl-1H-indol-4-yl)amino)-2-(pyrrolidin-3-ylamino)pyrimidine-5-carboxamide] | 7.00 to 8.00
Cc1cccc(Nc2nc(N[C@@H]3CC[C@@H](C(=O)N4CCC4)C[C@@H]3N)ncc2C(N)=O)c1 [Example 191, 2-((1R,2S,4R)-2-amino-4-(azetidine-1-carbonyl)cyclohexylamino)-4-(m-tolylamino)pyrimidine-5-carboxamide] | 8.00 to 9.00
COc1cccc(Nc2ncc(C(N)=O)c(NC3CCC(N)CC3)n2)c1 (stereo in doubt) [Example 247, 4-(trans-4-aminocyclohexylamino)-2-(3-methoxyphenylamino)pyrimidine-5-carboxamide] | 7.00 to 8.00
NC(=O)c1cnc(N[C@H]2CN[C@H](CO)C2)nc1Nc1cccc(-n2nccn2)c1 [Example 225] | 6.00 to 7.00
NC(=O)c1cnc(N[C@H](c2ccccc2)C2(N)CC2)nc1Nc1cccc(-n2nccn2)c1 [Example 149, (R)-4-(3-(2H-1,2,3-triazol-2-yl)phenylamino)-2-(1-(1-aminocyclopropyl)(phenyl)methylamino)pyrimidine-5-carboxamide] | 7.00 to 8.00
NC(=O)c1cnc(N[C@@H]2CCC[C@H](F)[C@@H]2N)nc1Nc1ccc2ncccc2c1 [Example 237, 2-((1R,2R,3S)-2-amino-3-fluorocyclohexylamino)-4-(quinolin-6-ylamino)pyrimidine-5-carboxamide] | 7.00 to 8.00
Cn1ccc2c(Nc3nc(NC[C@@H](N)CC(F)F)ncc3C(N)=O)ccc(F)c21 [Example 86, (S)-2-(2-amino-4,4-difluorobutylamino)-4-(7-fluoro-1-methyl-1H-indol-4-ylamino)pyrimidine-5-carboxamide] | 7.00 to 8.00

The remaining lines, values ahead:

pIC50 | SMILES
8.00 to 9.00 | NC(=O)c1cnc(N[C@H](C2CC2)C2(N)CC2)nc1Nc1cccc(F)c1 [Example 156, (R)-2-(1-(1-aminocyclopropyl)(cyclopropyl)methylamino)-4-(3-fluorophenylamino)pyrimidine-5-carboxamide]
7.00 to 8.00 | CC[C@@H](Nc1ncc(C(N)=O)c(Nc2cnn3ccccc23)n1)C(N)=O [Example 56, (R)-2-((1-amino-1-oxobutan-2-yl)amino)-4-(pyrazolo[1,5-a]pyridin-3-ylamino)pyrimidine-5-carboxamide]
7.00 to 8.00 | Cc1nsc(Nc2nc(N[C@@H]3CCCC[C@@H]3N)ncc2C(N)=O)c1I [Example 231, 2-(((1R,2S)-2-aminocyclohexyl)amino)-4-((4-iodo-3-methylisothiazol-5-yl)amino)pyrimidine-5-carboxamide]
7.00 to 8.00 | NC(=O)c1cnc(N[C@@H]2CCOC[C@@H]2N)nc1Nc1cccc(Cl)c1 [Example 50, 2-(((3R,4R)-3-aminotetrahydro-2H-pyran-4-yl)amino)-4-((3-chlorophenyl)amino)pyrimidine-5-carboxamide]
7.00 to 8.00 | CN1CCCc2cc(Nc3nc(N[C@H]4CN[C@@H](CO)C4)ncc3C(N)=O)ccc21 [Example 220, 2-(((3R,5R)-5-(hydroxymethyl)pyrrolidin-3-yl)amino)-4-((1-methyl-1,2,3,4-tetrahydroquinolin-6-yl)amino)pyrimidine-5-carboxamide]
7.00 to 8.00 | Cc1cncc(Nc2nc(N[C@@H]3CCCC[C@@H]3N)ncc2C(N)=O)c1 [Example 46, 2-(((1R,2S)-2-aminocyclohexyl)amino)-4-((5-methylpyridin-3-yl)amino)pyrimidine-5-carboxamide]
